Patent US8765779B2, “Tricyclic derivatives and their pharmaceutical use and compositions” (Cephalon, Inc., priority 2009, dated 2014)
Structures can show the parent of a compound that is named as a salt. Where two headings read alike, the source gives them in different places.

Target: T1, human 5-HT6 receptor (Homo sapiens, UniProt P50406)
T1 construct: host or cells: CHO-K1 cells, stably transfected; membranes prepared in house
Test: Human 5-HT6 Receptor Binding Assay ([3H]LSD displacement, scintillation beads)
Details: membranes of CHO-K1 cells with recombinant human 5-HT6, 4 nM [3H]LSD, read-out: h5-HT6 (Ki)
Procedure: Human 5-HT6 Receptor Binding Assay
Membranes were prepared from CHO—K1 cells stably transfected with the human 5-HT6 receptor (Euroscreen; ES-316-C). The cells were grown in Gibco Advanced DMEM-F12 (Cat#12634010) containing 2% dialyzed FBS (Hyclone Cat#SH30079.03). The cells were harvested in phosphate buffered saline (PBS) containing 0.1 mM EDTA and pelleted by centrifugation (1000×g), the supernatant was discarded and the pellets were stored at −80° C. prior to membrane preparation. Membranes were prepared as previously described (J Bio Chem. 1992, 267 (14) 9844-51). Briefly, frozen cell pellet was resuspended in a lysis buffer containing 5 mM Tris-HCl (pH 7.5), 5 mM EDTA and 1 complete EDTA-free protease inhibitor tablet (Roche Applied Science, Indianapolis, Ind.) per 50 mL buffer, and homogenized with a tissue homogenizer. The cell lysate was then centrifuged at 40,000×g for 30 min at 4° C. to collect the membranes. The membrane pellets were washed in membrane buffer (50 mM Tris-HCl (pH 7.5), 0.6 mM EDTA, 5 mM MgCl2, 1 complete EDTA-free protease inhibitor tablet per 50 mL buffer) using a tissue homogenizer. The membranes were centrifuged at 40,000×g for 30 min at 4° C. and the pellets were resuspended in membrane buffer containing 250 mM sucrose, and protein concentration was determined using the Coomassie Plus kit (Pierce Biotechnology, Rockford, Ill.).
Membranes prepared from cells expressing recombinant human 5-HT6 receptor (h5-HT6) were resuspended in assay buffer containing 50 mM Tris HCl, (pH7.4), 4 mM CaCl2, 10 μg/mL saponin, and 0.1% (w/v) ascorbic acid. Membranes were preincubated using 1.75 μg membrane protein and 0.25 mg FlashBlue scintillation beads (PerkinElmer catalogue #FB001) per well at 4° for 30 min. […] Test compounds or assay controls for total and non-specific binding were diluted in DMSO as 100× solutions and serially diluted by half log concentrations on a Perkin Elmer JANUS Automated Workstation. Serotonin (10 μM final concentration) was used to determine non-specific binding in the assay. Plates were read using the Microbeta Trilux 1450 LSC and luminescence counter. Data were analyzed by nonlinear […] using the dose-response equation (variable slope) to calculate IC50 in XLfit4 (ID Business Solutions Inc.): y=(Bottom+((Top−Bottom)/(1+((IC50/x)^Hill slope))))
Ki value was then calculated according to the Cheng-Prusoff method using the equation below (Cheng and Prusoff, 1973): Ki,app=IC50/(1+[radioligand]/Kd))

T1 sequence (P50406 whole entry): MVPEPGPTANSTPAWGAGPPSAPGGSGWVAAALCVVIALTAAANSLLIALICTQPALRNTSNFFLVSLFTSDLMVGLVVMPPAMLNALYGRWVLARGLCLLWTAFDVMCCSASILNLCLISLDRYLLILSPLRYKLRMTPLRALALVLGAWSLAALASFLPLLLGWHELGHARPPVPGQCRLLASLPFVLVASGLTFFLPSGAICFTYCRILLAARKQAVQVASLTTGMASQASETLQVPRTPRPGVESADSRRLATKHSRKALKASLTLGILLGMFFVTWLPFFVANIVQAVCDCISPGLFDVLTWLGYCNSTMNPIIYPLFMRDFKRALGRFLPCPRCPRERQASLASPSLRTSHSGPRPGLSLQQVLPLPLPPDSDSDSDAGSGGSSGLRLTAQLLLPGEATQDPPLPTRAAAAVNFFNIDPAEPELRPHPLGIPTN

Structure (SMILES)	Ki (Table 1, class symbols) [nM]	Ki (specific data) [nM]
O=S(=O)(c1cccc(F)c1)c1ccc2c3c(oc2c1)C1(CCOCC1F)NCC3 (single isomer, unassigned) [Example 54, 3′-Fluoro-7-[(3-fluorophenyl)sulfonyl]-2′,3,3′,4,5′,6′-hexahydro-2H-spiro[1-benzofuro[2,3-c]pyridine-1,4′-pyran]]	< 500	
O=S(=O)(c1ccccc1)c1ccc2c3c(oc2c1)[C@@]1(CCOC1)NCC3 (single isomer, unassigned) [Example 108]	< 500	
O=S(=O)(c1ccc2c3c(oc2c1)[C@@]1(CCOC1)NCC3)c1cc(F)ccc1F (single isomer, unassigned) [Example 109]	< 500	
O=S(=O)(c1ccccc1)c1ccc2c3c(oc2c1)[C@]1(CCOC1)NCC3 (single isomer, unassigned) [Example 110]	< 500	
O=S(=O)(c1ccc2c3c(oc2c1)[C@]1(CCOC1)NCC3)c1cc(F)ccc1F (single isomer, unassigned) [Example 111]	< 500	
O=S(=O)(c1cccc(Cl)c1)c1ccc2c3c([nH]c2c1)C1(CCCOC1)NCC3 (single isomer, unassigned) [Example 316]	< 500	
O=S(=O)(c1cccc(OC(F)(F)F)c1)c1ccc2c3c([nH]c2c1)C1(CCCOC1)NCC3 (single isomer, unassigned) [Example 319]	< 500	
CC(C)Oc1cc(F)cc(S(=O)(=O)c2ccc3c(c2)OC2CNCCC32)c1 (single isomer, unassigned) [Example 364, 7-(3-Fluoro-5-isopropoxy-benzenesulfonyl)-1,2,3,4,4a,9a-hexahydro-benzo[4,5]furo[2,3-c]pyridine hydrochloride]	< 500	
O=S(=O)(c1ccccc1)c1ccc2c3c(oc2c1)C1(CCCOC1)NCC3 (single isomer, unassigned) [Example 543, 7-(Phenylsulfonyl)-3,4,5′,6′-tetrahydro-2H,4′H-spiro[1-benzofuro[2,3-c]pyridine-1,3′-pyran]hydrochloride]	< 500	
O=S(=O)(c1ccccc1)c1ccc2c3c(oc2c1)C1(CCCOC1)NCC3 (single isomer, unassigned) [Example 544, 7-(Phenylsulfonyl)-3,4,5′,6′-tetrahydro-2H,4′H-spiro[1-benzofuro[2,3-c]pyridine-1,3′-pyran]hydrochloride]	500 to 1000	
O=S(=O)(c1cccc(OCC2CCOCC2)c1)c1ccc2c(c1)OC1CNCCC21 (single isomer, unassigned) [Example 548, 7-{[3-(Tetrahydro-2H-pyran-4-ylmethoxy)phenyl]sulfonyl}-1,2,3,4,4a,9a-hexahydro[1]benzofuro[2,3-c]pyridine]	< 500	
CC1(C(F)F)NCCc2c1oc1cc(S(=O)(=O)c3cccc(F)c3F)ccc21 (single isomer, unassigned; enantiomer 1) [Example 471, 1-(Difluoromethyl)-7-[(2,3-difluorophenyl)sulfonyl]-1-methyl-1,2,3,4-tetrahydro[1]benzofuro[2,3-c]pyridine, enantiomer 1]	< 500	
CC1(C)CNC2(CCOCC2)c2oc3cc(S(=O)(=O)c4cccc(F)c4)ccc3c21 [Example 2, 7-[(3-fluorophenyl)sulfonyl]-4,4-dimethyl-2′,3,3′,4,5′,6′-hexahydro-2H-spiro[1-benzofuro[2,3-c]pyridine-1,4′-pyran]]	< 500	

Now from value to compound:

Ki (Table 1, class symbols) [nM]	Ki (specific data) [nM]	Structure (SMILES)
< 500		CN(C)C(=O)CC1(C)NCCc2c1oc1cc(S(=O)(=O)c3cccc(F)c3)ccc21 (single isomer, unassigned) [Example 51, 2-{7-[(3-fluorophenyl)sulfonyl]-1-methyl-1,2,3,4-tetrahydro[1]benzofuro[2,3-c]pyridin-1-yl}-N,N-dimethylacetamide]
< 500		O=S(=O)(c1cccc(F)c1)c1ccc2c3c(oc2c1)C1(CCOC1)NCC3 (single isomer, unassigned) [Example 52, 7-[(3-fluorophenyl)sulfonyl]-3,4,4′,5′-tetrahydro-2H-spiro[1-benzofuro[2,3-c]pyridine-1,3′-furan]]
< 500		O=S(=O)(c1cccc(F)c1)c1ccc2c3c(oc2c1)C1(CCOC1)NCC3 (single isomer, unassigned) [Example 53, 7-[(3-fluorophenyl)sulfonyl]-3,4,4′,5′-tetrahydro-2H-spiro[1-benzofuro[2,3-c]pyridine-1,3′-furan]]
< 500		CC1OCCC12NCCc1c2oc2cc(S(=O)(=O)c3cccc(F)c3)ccc12 (single isomer, unassigned) [Example 56, 7-[(3-Fluorophenyl)sulfonyl]-2′-methyl-3,4,4′,5′-tetrahydro-2H-spiro[1-benzofuro[2,3-c]pyridine-1,3′-furan]]
< 500		CC1OCCC12NCCc1c2oc2cc(S(=O)(=O)c3cccc(F)c3)ccc12 (single isomer, unassigned) [Example 57, 7-[(3-Fluorophenyl)sulfonyl]-2′-methyl-3,4,4′,5′-tetrahydro-2H-spiro[1-benzofuro[2,3-c]pyridine-1,3′-furan]]
< 500		CC1OCCC12NCCc1c2oc2cc(S(=O)(=O)c3cccc(F)c3)ccc12 (single isomer, unassigned) [Example 58, 7-[(3-Fluorophenyl)sulfonyl]-2′-methyl-3,4,4′,5′-tetrahydro-2H-spiro[1-benzofuro[2,3-c]pyridine-1,3′-furan]]
< 500		CC1OCCC12NCCc1c2oc2cc(S(=O)(=O)c3cccc(F)c3)ccc12 (single isomer, unassigned) [Example 59, 7-[(3-Fluorophenyl)sulfonyl]-2′-methyl-3,4,4′,5′-tetrahydro-2H-spiro[1-benzofuro[2,3-c]pyridine-1,3′-furan]]
< 500		CC1OCCC12NCCc1c2oc2cc(S(=O)(=O)c3cccc(F)c3)ccc12 (single isomer, unassigned) [Example 60, 7-[(3-Fluorophenyl)sulfonyl]-2′-methyl-3,4,4′,5′-tetrahydro-2H-spiro[1-benzofuro[2,3-c]pyridine-1,3′-furan]]
< 500		CC1OCCC12NCCc1c2oc2cc(S(=O)(=O)c3cccc(F)c3)ccc12 (single isomer, unassigned) [Example 61, 7-[(3-Fluorophenyl)sulfonyl]-2′-methyl-3,4,4′,5′-tetrahydro-2H-spiro[1-benzofuro[2,3-c]pyridine-1,3′-furan]]
< 500	1.5	CC1(C)NCCc2c1oc1cc(S(=O)(=O)c3cccc(F)c3)ccc21 [Example 1, 7-[(3-Fluorophenyl)sulfonyl]-1,1-dimethyl-1,2,3,4-tetrahydro[1]benzofuro[2,3-c]pyridine]
< 500		CC(C)Oc1cccc(S(=O)(=O)c2ccc3c4c(oc3c2)C(C)(C)NCC4)c1 [Example 15, 1,1-dimethyl-7-{[3-(propan-2-yloxy)phenyl]sulfonyl}-1,2,3,4-tetrahydro[1]benzofuro[2,3-c]pyridine]
< 500		COc1cccc(S(=O)(=O)c2ccc3c4c(oc3c2)C(C)(C)NCC4)c1 [Example 16, 7-[(3-methoxyphenyl)sulfonyl]-1,1-dimethyl-1,2,3,4-tetrahydro[1]benzofuro[2,3-c]pyridine]
< 500		CC1(C)NCCc2c1oc1cc(S(=O)(=O)c3cccc(Cl)c3)ccc21 [Example 17, 7-[(3-chlorophenyl)sulfonyl]-1,1-dimethyl-1,2,3,4-tetrahydro[1]benzofuro[2,3-c]pyridine]
